Assay [1] deals with T1, Short transient receptor potential channel 4 (Mus musculus, UniProt Q9QUQ5).
T1 sequence (Q9QUQ5 whole entry): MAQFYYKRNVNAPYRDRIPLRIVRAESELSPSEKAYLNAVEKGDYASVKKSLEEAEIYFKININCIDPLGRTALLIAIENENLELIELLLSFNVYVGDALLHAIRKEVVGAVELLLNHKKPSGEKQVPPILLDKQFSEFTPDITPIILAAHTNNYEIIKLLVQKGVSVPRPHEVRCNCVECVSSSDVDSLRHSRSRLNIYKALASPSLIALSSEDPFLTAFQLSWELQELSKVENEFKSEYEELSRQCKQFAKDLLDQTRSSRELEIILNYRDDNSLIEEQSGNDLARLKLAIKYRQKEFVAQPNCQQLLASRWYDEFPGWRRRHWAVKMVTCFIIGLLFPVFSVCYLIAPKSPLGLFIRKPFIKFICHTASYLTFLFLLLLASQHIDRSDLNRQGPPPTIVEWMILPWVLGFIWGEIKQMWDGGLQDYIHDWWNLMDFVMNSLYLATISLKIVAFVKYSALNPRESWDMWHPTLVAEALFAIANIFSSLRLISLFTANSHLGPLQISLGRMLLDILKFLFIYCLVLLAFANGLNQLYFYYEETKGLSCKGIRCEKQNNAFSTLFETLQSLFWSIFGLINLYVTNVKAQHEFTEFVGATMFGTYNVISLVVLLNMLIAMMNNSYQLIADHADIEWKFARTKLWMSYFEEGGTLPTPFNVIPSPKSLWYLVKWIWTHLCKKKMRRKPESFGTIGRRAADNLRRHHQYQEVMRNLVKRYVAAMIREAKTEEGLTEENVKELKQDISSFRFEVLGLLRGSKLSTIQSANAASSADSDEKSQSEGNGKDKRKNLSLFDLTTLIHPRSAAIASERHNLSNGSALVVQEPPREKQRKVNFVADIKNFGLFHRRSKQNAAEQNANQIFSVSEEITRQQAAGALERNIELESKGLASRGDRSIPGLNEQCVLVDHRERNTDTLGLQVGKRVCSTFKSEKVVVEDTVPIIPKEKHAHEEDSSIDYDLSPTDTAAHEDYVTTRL
Put plainly: calcium entry via TRPC4 opening agents – cell-based, HEK293 TRPC4/mu-opioid, Fluo-4 calcium, dose response (AID 434937). Type of assay: functional.

The next assay deals with SUMO-activating enzyme (Homo sapiens, UniProt Q9UBT2). Kind of assay: blockers of UBC9-mediated SUMO conjugation – biochemical, AlphaScreen, SUMOylation inhibitor project, confirmation (AID 2018). Type of assay: functional. (In Alpha technology, singlet oxygen from a donor bead excites a nearby acceptor bead.)
Sequence of SUMO-activating enzyme (Q9UBE0 whole entry): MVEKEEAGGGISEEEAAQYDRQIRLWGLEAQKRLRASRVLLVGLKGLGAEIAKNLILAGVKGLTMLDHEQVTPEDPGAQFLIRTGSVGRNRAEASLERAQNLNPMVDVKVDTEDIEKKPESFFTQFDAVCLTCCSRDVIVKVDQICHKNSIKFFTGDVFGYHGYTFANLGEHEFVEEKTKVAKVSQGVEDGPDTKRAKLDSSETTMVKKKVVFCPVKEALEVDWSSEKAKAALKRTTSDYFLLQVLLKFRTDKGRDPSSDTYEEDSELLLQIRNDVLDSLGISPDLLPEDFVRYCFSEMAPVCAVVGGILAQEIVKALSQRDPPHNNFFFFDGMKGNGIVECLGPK
Sequence of SUMO-activating enzyme (Q9UBT2 whole entry): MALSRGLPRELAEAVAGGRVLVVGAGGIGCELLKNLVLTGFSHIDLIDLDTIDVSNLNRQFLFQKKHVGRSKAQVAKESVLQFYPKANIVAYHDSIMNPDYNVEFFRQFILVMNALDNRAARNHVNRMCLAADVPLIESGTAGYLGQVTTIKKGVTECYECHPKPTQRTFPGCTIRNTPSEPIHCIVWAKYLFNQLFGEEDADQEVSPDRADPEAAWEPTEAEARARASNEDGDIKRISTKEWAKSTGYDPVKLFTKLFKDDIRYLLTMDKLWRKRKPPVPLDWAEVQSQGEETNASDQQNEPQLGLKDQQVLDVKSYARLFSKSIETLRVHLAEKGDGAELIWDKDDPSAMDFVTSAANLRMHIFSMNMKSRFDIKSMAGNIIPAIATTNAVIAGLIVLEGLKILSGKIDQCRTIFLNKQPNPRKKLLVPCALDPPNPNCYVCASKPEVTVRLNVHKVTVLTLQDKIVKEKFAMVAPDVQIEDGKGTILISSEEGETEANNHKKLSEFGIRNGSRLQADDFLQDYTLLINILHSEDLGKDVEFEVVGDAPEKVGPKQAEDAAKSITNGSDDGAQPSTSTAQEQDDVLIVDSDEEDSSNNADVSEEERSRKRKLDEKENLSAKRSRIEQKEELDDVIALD
Another assay relates to H9c2. Put plainly: cells. The assay is classed as functional, cell-based. To be noted: Rattus norvegicus, H9c2, Myocardium.
Assay [2] addresses T2, Alkaline phosphatase, tissue-nonspecific isozyme (Homo sapiens, UniProt P05186).
T2 sequence (P05186 whole entry): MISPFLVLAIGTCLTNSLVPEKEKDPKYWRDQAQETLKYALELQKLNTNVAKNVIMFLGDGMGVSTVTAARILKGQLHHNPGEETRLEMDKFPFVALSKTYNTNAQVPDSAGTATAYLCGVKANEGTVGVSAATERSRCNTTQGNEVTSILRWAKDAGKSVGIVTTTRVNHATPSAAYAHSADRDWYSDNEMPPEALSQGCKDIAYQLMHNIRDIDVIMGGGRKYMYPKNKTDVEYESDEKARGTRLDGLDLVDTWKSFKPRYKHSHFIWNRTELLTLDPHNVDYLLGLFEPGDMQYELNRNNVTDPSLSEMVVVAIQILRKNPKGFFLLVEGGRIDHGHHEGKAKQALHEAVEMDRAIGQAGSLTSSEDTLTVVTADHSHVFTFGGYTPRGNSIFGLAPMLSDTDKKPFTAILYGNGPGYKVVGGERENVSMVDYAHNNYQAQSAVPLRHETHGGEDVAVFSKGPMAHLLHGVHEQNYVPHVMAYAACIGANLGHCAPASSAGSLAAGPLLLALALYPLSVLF
Put plainly: potency against alkaline phosphatase TNAP – biochemical, luminescent, dose response, SAR follow-up (AID 1056).

Assay [3] concerns the target Glyceraldehyde-3-phosphate dehydrogenase (Homo sapiens, UniProt P04406).
Assay [4] deals with T1, Short transient receptor potential channel 4. Put plainly: block of DAMGO-driven TRPC4 calcium entry – cell-based, HEK293 TRPC4/mu-opioid, Fluo-4 calcium, dose response (AID 434942).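 Also: potency of inhibitors blocking the TRPC4 calcium response.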 The assay is classed as functional.
Assay [5] addresses G-protein coupled receptor 55 (Homo sapiens, UniProt Q9Y2T6). Kind of assay: selective activators of receptor GPR55 – imaging, U2OS cells, beta-arrestin-GFP redistribution, primary screen (AID 1961). Type of assay: functional.
In assay [6] the target is T3, Replicative DNA helicase DnaB (Mycobacterium tuberculosis, UniProt P9WMR3).
T3 sequence (P9WMR3 whole entry): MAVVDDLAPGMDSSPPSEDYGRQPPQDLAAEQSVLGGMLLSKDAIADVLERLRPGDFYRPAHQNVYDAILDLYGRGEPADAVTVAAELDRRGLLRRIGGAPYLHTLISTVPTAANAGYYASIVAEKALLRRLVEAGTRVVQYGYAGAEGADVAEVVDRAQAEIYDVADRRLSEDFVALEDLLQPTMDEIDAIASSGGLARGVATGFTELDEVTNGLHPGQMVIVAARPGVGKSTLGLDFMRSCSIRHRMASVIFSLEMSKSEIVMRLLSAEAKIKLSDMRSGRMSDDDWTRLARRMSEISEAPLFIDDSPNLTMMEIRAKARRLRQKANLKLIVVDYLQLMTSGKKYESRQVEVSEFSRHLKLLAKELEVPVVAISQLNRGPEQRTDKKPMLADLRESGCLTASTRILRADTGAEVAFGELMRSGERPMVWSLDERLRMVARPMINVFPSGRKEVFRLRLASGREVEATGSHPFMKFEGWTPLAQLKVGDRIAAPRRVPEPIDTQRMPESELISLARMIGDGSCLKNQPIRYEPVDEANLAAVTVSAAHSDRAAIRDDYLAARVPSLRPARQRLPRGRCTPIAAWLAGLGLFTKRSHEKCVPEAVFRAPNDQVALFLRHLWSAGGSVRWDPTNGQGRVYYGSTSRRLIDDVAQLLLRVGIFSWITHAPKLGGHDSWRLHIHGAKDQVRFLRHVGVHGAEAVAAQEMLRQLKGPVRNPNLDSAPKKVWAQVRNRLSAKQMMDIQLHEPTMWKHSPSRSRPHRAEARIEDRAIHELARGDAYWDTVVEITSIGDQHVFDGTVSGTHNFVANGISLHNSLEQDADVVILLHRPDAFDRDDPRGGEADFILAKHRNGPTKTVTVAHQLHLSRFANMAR
Kind of assay: DnaB intein splicing inhibitors, dose response, biochemical, cell-free fluorescence (AID 449749). Type of assay: functional.

The next assay deals with T4, Protein RecA (Mycobacterium tuberculosis, UniProt P9WHJ3).
T4 sequence (P9WHJ3 whole entry): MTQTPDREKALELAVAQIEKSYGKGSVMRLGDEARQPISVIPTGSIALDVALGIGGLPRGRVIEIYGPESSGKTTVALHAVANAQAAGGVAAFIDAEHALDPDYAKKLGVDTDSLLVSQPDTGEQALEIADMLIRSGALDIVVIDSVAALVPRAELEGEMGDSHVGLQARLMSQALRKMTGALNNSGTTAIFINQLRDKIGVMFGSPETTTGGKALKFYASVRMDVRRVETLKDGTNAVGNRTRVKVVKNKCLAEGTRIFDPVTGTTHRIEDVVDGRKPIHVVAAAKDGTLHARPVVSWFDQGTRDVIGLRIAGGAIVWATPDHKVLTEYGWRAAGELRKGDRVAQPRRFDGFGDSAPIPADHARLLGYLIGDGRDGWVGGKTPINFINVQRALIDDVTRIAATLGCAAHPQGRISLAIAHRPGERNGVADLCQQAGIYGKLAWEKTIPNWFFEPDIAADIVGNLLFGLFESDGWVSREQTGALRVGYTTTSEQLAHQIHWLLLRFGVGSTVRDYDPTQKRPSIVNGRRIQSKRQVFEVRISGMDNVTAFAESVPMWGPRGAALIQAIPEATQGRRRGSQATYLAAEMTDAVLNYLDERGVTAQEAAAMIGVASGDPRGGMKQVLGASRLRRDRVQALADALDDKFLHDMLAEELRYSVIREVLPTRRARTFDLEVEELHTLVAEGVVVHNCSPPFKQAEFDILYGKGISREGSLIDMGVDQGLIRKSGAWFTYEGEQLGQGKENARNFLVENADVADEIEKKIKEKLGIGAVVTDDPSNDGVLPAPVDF
Put plainly: Fluorescence Cell-Free Homogeneous Dose Retest to Identify Inhibitors of RecA-Intein Splicing Activity. [Related pubchem assays (depositor defined):AID2097, AID2223, AID489010, AID492950]. Type of assay: functional.

The target of assay [7] is T5, Microphthalmia-associated transcription factor (Homo sapiens, UniProt O75030).
T5 sequence (O75030 whole entry): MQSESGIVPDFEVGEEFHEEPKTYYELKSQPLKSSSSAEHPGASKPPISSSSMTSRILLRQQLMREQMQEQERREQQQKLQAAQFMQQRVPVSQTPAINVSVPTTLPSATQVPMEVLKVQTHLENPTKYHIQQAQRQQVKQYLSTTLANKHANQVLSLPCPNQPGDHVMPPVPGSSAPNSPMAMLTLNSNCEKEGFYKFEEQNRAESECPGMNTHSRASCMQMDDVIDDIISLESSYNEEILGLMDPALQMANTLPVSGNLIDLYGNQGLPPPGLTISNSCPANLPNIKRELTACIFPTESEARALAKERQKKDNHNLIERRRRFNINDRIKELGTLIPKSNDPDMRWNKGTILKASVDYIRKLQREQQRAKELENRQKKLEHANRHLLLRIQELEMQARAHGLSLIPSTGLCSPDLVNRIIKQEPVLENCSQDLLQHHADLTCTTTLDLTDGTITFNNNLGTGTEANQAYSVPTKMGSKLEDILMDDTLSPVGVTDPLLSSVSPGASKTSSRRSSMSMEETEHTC
Put plainly: reducers of TRPM1 reporter luminescence, concentration series – cell-based, SK-MEL-5, cherry-picked, set 3, MITF inhibitor project, dose response (AID 493073).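 Also: SK-MEL-5 melanoma cells with luciferase driven by the MITF target TRPM1 promoter.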 Type of assay: functional.

Activity calls are given as the source filed them. Bounds are passed on as bounds.

Sequence of Glyceraldehyde-3-phosphate dehydrogenase (P04406 whole entry): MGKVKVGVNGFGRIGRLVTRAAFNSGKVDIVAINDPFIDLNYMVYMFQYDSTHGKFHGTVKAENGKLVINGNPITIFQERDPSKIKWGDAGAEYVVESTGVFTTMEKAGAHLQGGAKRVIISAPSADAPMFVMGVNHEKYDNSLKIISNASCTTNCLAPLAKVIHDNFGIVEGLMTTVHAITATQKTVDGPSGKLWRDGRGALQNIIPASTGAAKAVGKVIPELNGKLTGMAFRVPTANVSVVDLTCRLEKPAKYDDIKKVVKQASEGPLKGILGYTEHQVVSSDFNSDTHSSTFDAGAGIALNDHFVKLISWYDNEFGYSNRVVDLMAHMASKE
Sequence of G-protein coupled receptor 55 (Q9Y2T6 whole entry): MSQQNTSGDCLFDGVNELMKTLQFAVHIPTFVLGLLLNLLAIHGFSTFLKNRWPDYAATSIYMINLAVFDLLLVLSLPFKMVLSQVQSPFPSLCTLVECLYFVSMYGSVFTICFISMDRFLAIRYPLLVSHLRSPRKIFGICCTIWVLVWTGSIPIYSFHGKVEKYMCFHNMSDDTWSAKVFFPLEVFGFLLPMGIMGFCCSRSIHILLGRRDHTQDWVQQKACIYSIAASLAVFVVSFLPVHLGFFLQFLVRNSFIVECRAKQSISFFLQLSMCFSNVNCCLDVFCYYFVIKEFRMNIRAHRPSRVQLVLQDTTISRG

As a reminder, the EC50 is the concentration needed to bring the measured effect to its halfway point. For `CC1CCCN(CCCNC(=O)c2ccc3c(c2)N(Cc2ccccc2F)C(=O)c2ccccc2S3(=O)=O)C1` (stereo unspecified), the EC50 in assay [1] was 0.944 µM (active).

The IC50 is the concentration needed to halve the response being measured. Take `Nc1c(C(=O)N/N=C/c2cccnc2)oc2nc(-c3ccco3)cc(-c3ccco3)c12`: the values for the 50% inhibitory concentration (IC50) on SUMO-activating enzyme and in the assay on H9c2 were 8.88 µM (active) and > 79 µM (inactive), respectively.

For the compound `CN(C)C1(CNC(=O)c2ccc(Cl)c(S(=O)(=O)NCc3ccco3)c2)CCCCC1`, the EC50 in assay [1] was 0.119 µM (active).

In the case of `Cn1nc(-c2ccc(F)cc2)cc1C(=O)O`, the IC50 is > 100 µM (inactive) in assay [2] and > 100 µM (not active) in assay [3].

On to `COc1cccc(Cc2nnc(N3C(=O)[C@H]4CCCC[C@H]4C3=O)[nH]2)c1`, for which the 50% inhibitory concentration (IC50) in assay [2] was 1.63 µM (active); in [3] it was > 100 µM (not active).

For the compound `C/C=C(\C)CN1CCC(n2nccc2NC(=O)CCc2ccccc2)CC1`, the EC50 in assay [1] was 0.267 µM (active); in assay [4], 0.299 µM (active).

Take `O=C1c2ccccc2C(=O)N1c1nnc(-c2ccc(Cl)cc2)[nH]1`: the IC50 in assay [2] was 2.49 µM (active); in assay [3], > 100 µM (not active).

What is called AC50 is the midpoint of the concentration-response curve, whichever way the signal moves. For `CCSC1(SCC)N=C(N)C2(C#N)C(c3ccc(F)cc3)C12C#N` (stereo unspecified), the 50% effective concentration (EC50) is 1.86 µM (active) in [5] and 12.5 µM (active) at Protein RecA. Also, the concentration at half-maximal activity (AC50) in [6] is 6.54 µM (active); in [7], 14 µM (active).

These data come from ChEMBL document CHEMBL1201862, “PubChem BioAssay data set” (2004).
